Source: PubChem BioAssay AID2740 (NMMLSC, 2010)
Activity calls are given as the source filed them.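 The calls were made as follows: active = compounds whose fitted half-maximal concentration for changing the GFP signal is at or below a set limit; inactive = the rest.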

test: TOR pathway RPL19A-GFP modulators, concentration series – cell-based, S. cerevisiae, flow cytometry, MLPCN hits, dose response (AID 2740);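 also: background is signal of the same compound in parental non-GFP s288c yeast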; details: S. cerevisiae RPL19A-GFP strain, flow cytometry fluorescence, 3 h; at 33 µM (top of the series)

SMILES | GFP fluorescence, lower = active (kMESF (background-subtracted))
O=c1[nH]c(-c2ccccn2)nc(C(F)(F)F)c1Br | 30.1 (inactive)
O=C1C=C(c2ccc(Cl)cc2)C(=O)N1Nc1ccccc1 | 18.7 (inactive)
CC[C@@]1(c2ccccc2OC)ON(c2ccccc2C(F)(F)F)C1=O | 35.9 (inactive)
COc1ccccc1[C@@]1(C)ON(c2ccccc2C(F)(F)F)C1=O | 22.7 (inactive)
O=C(Nc1nnc(-c2ccc3c(c2)CCCC3)o1)c1ccc(Cl)cc1Cl | 37.2 (inactive)
O=C(c1ccccc1)c1ccccc1N1C(=O)C=CC1=O | 26 (inactive)
O=[N+]([O-])c1cc(O)c2ncccc2c1 | 45 (inactive)
COc1cc(/C=C2\CC/C(=C\c3cc(OC)c(O)c(OC)c3)C2=O)cc(OC)c1O | 39.6 (inactive)
Oc1c(I)cc(I)c2cccnc12 | 23 (inactive)
CN1C(=O)/C(=N\OC(=O)c2cccc3ccccc23)c2ccccc21 | 42.9 (inactive)
Cc1c(N2C(=O)/C(=C\c3ccccc3O)SC2=S)c(=O)n(-c2ccccc2)n1C | 38.7 (inactive)
Cn1c(=O)c(C(=O)NNC(=O)c2ccc(Br)cc2)c(O)c2ccccc21 | 22.3 (inactive)
COc1cc(/C=C2\C(=O)ON=C2c2ccccc2)cc(Br)c1O | 37.3 (inactive)
COc1cccc(/C=N/Nc2ccc([N+](=O)[O-])cn2)c1O | 42.1 (inactive)
O=c1oc2ccccc2c(O)c1[C@H]1c2ccc(O)cc2Oc2c1c(=O)oc1ccccc21 | 34.8 (inactive)
Cc1ccc2c(nc3s/c(=C\c4ccc(-c5ccccc5C(=O)O)o4)c(=O)n32)c1C | 53.5 (inactive)
O=C(O)c1cccc(S(=O)(=O)Nc2ccc(S(=O)(=O)N3CCOCC3)cc2)c1 | 38.7 (inactive)
CCCS(=O)(=O)c1nnnn1-c1cccc(OC)c1 | 31.9 (inactive)
O=C1CCN(S(=O)(=O)c2ccccc2)CCN1CCOCc1ccc(F)cc1 | 36.9 (inactive)
CN(C)c1ccc(/C=C/c2cc[n+](C)cc2)cc1 | 44.5 (inactive)

SMILES | GFP fluorescence, lower = active (kMESF (background-subtracted))
Cc1cccc(/C=C/C(=O)c2ccc([N+](=O)[O-])o2)c1 | 16.1 (inactive)
O=C(O)c1ccn2c(C(=O)c3ccccc3)c(-c3ccccc3)cc2c1 | 39.3 (inactive)
COc1ccc(C2=CC3=C(Br)C(=O)C(C)(O)C(=O)C3=CO2)cc1 (stereo not drawn) | 1.92 (inactive)
Cc1c(C(=O)Nc2nc(-c3ccccn3)cs2)oc2ccccc12 | 33.3 (inactive)
Cc1cc(Br)c2c(c1)/C(=C/C(=O)c1cccs1)C(=O)N2 | 40.3 (inactive)
O=C(Nc1nnc(-c2ccc(Cl)cc2)o1)c1ccccc1Br | 37 (inactive)
CC(C)(C)c1cc(C(c2cccnc2)N2CCN(CCO)CC2)cc(C(C)(C)C)c1O (stereo not drawn) | 4.63 (inactive)
Cc1ccc(C(CC(=O)O)NC(=O)c2ccc(S(=O)(=O)N3CC(C)OC(C)C3)cc2)cc1 (stereo not drawn) | 39.2 (inactive)
Cc1cc(C(=O)COC(=O)c2ccc[nH]c2=O)c(C)n1-c1ccccc1F | 28.1 (inactive)
COc1ccc(C(=O)NNC(=S)NC(=O)/C=C/c2cccs2)cc1 | 47.4 (inactive)
Cc1ccc(S(=O)(=O)N2CCCC2C(=O)NCc2ccncc2)cc1 (stereo not drawn) | 39.8 (inactive)
Oc1c(C(Nc2nc3ccccc3s2)c2ccco2)ccc2cccnc12 (stereo not drawn) | 43.4 (inactive)
Oc1c(CN2CCN(c3ccccc3)CC2)cc(Br)c2cccnc12 | 38.4 (inactive)
Oc1c(C(Nc2cccc(C(F)(F)F)c2)c2ccncc2)ccc2cccnc12 (stereo not drawn) | 45.3 (inactive)
COc1cccc(N=Nc2ccc(O)c3ncccc23)c1 | 50.7 (inactive)
CCN(CC(=O)NC(C)(C)C)C(=O)COc1c(Cl)cc(Cl)c2ccc(C)nc12 | 50.3 (inactive)
CCOc1ccc(C(Nc2cccnc2)c2cc(Cl)c3cccnc3c2O)cc1 (stereo not drawn) | 28.3 (inactive)
CCOc1ccc(N2C(=O)C(Cl)=C(Nc3ccccc3O)C2=O)cc1 | 45.1 (inactive)
CCOC(=O)CS(=O)(=O)c1nc(-c2ccccc2)cc(C(F)(F)F)n1 | 44.1 (inactive)
O=C(c1ccc(C(=O)N2CCCc3ccccc32)s1)N1CCCc2ccccc21 | 38.1 (inactive)

SMILES | GFP fluorescence, lower = active (kMESF (background-subtracted))
CSC1=NS(=O)(=O)c2c(C)nn(C)c2S1 | 35.2 (inactive)
Cc1[nH][nH]c(=O)c1C(c1ccc(-c2ccc(Cl)c(Cl)c2)o1)c1c(C)[nH][nH]c1=O | 43.4 (inactive)
O=C1C=CC(=O)N1c1ccc(OC(F)F)cc1 | 14.7 (inactive)
COc1ccc(N=Cc2nc(-c3ccccc3)oc2OC(C)=O)cc1 | 40.2 (inactive)
Cc1nc2ccc(NC(=O)c3oc4ccc(F)cc4c3C)cc2s1 | 39 (inactive)
COc1cccc(/C=C2\SC(=S)N(CCCC(=O)Nc3ccc(C(=O)O)cc3)C2=O)c1 | 38.2 (inactive)
CCc1sc(C(=O)Nc2nc(-c3ccccn3)cs2)cc1C | 21.1 (inactive)
CS(=O)(=O)c1sc(C#N)c2c1C(=O)CC(c1ccccc1)C2 (stereo not drawn) | 38.5 (inactive)
CC1=C(C)/C(=N\OS(=O)(=O)c2ccccc2)C=CC1=O | 24.9 (inactive)
Cc1cc(C)c(OCC(=O)Nc2nc(-c3ccccn3)cs2)c(C)c1 | 39.3 (inactive)
COc1ccc(N2C(=O)C(Cl)=C(NCc3ccccc3)C2=O)cc1 | 44.3 (inactive)
O=C(/C=C/c1ccnc2ccccc12)c1cccs1 | 38 (inactive)
CCC(=O)Oc1oc(-c2ccccc2)nc1C=Nc1ccc(C)cc1 | 40.5 (inactive)
N/C(Cc1ccc(Cl)cc1)=N\OC(=O)c1cccc2ccccc12 | 45.3 (inactive)
Cc1ccccc1N1C(=O)C(Cl)=C(N2CCN(c3ccccc3)CC2)C1=O | 39.3 (inactive)
N#Cc1cc([N+](=O)[O-])c(-n2nnc3ccccc32)c([N+](=O)[O-])c1 | 43.3 (inactive)
CCCCCn1c(=O)c(C(=O)Nc2nc3ccccc3[nH]2)c(O)c2ccccc21 | 43.6 (inactive)
Nc1c(C(=O)c2cccs2)sc2nsc(SCCN3CCCCC3)c12 | 38.1 (inactive)
